The results in this text go back to patent US5223526A, “Pyrazole carboxanilide fungicides and use” (Monsanto Company, priority 1992, dated 1993).

For experiment [1], the system named is Botrytis cinerea. Briefly: Eggplant grey mold. In kind it is in vivo. Also on record: scale not given here. The settings on record: inoculated 24 h later, rated after 3-4 days; for Disease Control Rating at 20 ppm: eggplant sprayed with 20 ppm; for Disease Control Rating at 100 ppm: eggplant sprayed with 100 ppm; for Disease Control Rating at 500 ppm: eggplant sprayed with 500 ppm. Summed up: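 Protective test: compound formulations (2:3 acetone:water, 0.5% Tween 20; 500, 100 or 20 ppm) sprayed on 14-18-day-old plants, with spore inoculum (4×10^6 spore/mL) applied a day later. Disease control rated on Botrytis lesions after 3-4 days at 23 °C and 100% humidity.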

The test system of a further experiment is Rhizoctonia solani. Put plainly: Rice sheath blight. The experiment is classed as in vivo. Also on record: scale not given here. The note with it: inoculated two days later, rated after 7 days, average of five plants; for Disease Control Rating at 0.5 mg/mL: foliage and soil sprayed with 0.5 mg/mL; for Disease Control Rating at 0.02 mg/mL: foliage and soil sprayed with 0.02 mg/mL; for Disease Control Rating at 0.1 mg/mL: foliage and soil sprayed with 0.1 mg/mL. Summed up:
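Rice plants 11–15 days old had foliage and soil sprayed with 0.5, 0.1 or 0.02 mg/mL Compound A in water/acetone/Tween 20, then kept in flooded trays. Two days later, rice-grain Rhizoctonia solani inoculum went to plant bases; disease control scored versus untreated after 7 days at 25 °C, high humidity, averaging five plants.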

Experiment [2] relates to Botrytis cinerea. Briefly: Vine grey mold (grape berries). The experiment is classed as in vivo. The settings on record: average of six berries, 7-10 days; for pest or weed control at 50 ppm: grape berries treated with 50 ppm, read-out: % DISEASE CONTROL 50 ppm; for pest or weed control at 200 ppm: grape berries treated with 200 ppm, read-out: % DISEASE CONTROL 200 ppm. The gist of the method:
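Preventive berry test: compound at 50 or 200 ppm (acetone/water, 0.05% Tween 20) applied one day before inoculation with 10^6 spores/mL Botrytis conidia. After 7-10 days at 20 °C under 12 h light, infected surface area rated; disease control expressed as percent reduction from control mean; repeated-test values averaged.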

Another experiment has as its target T1, succinate dehydrogenase (Botrytis cinerea, UniProt A0A384J5E4+A0A384J8V8+A0A384JHJ5).
T1 construct: succinate-DCPIP reductase assay with KCN
Briefly: Enzyme inhibition: succinate dehydrogenase activity in Botrytis cinerea mitochondria (DCPIP reduction). The settings on record: concentration required to inhibit the rate of DCPIP reduction by 50%; Botrytis cinerea isolate Nick mitochondria; read-out: I50 (μM conc.). In kind it is biochemical. Summed up:
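Crude mitochondria from Botrytis cinerea isolate Nick mycelia, prepared by bead-beating and differential centrifugation, started reactions. SDH activity followed as DCPIP reduction at 600 nm in 50 mM K-phosphate pH 7.2 with 1 mM KCN, 45 μM DCPIP, 17 mM succinate, 1% acetone. I50 from semilog inhibition plots, corrected for succinate-free rates.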

T1 sequence (A0A384J5E4 1-300): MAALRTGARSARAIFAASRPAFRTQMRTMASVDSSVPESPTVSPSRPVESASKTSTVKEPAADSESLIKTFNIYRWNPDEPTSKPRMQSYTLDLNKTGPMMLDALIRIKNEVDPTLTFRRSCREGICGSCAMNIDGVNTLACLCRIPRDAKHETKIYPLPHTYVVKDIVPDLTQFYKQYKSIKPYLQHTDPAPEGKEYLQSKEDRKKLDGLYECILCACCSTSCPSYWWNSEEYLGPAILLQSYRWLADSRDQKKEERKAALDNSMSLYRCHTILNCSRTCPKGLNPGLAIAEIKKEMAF
T1 sequence (A0A384J8V8 1-189): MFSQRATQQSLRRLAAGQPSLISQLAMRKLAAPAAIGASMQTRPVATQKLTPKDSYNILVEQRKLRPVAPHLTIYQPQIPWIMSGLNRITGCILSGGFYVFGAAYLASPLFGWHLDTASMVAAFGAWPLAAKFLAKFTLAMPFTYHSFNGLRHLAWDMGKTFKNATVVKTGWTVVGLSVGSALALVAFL
T1 sequence (A0A384JHJ5 1-192): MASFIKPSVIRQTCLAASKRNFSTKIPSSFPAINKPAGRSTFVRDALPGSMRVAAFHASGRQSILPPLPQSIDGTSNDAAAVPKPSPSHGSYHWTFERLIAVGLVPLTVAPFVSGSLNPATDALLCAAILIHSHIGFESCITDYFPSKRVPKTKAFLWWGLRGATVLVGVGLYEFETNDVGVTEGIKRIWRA
T1 sequence (A0A384K456 1-647 partner): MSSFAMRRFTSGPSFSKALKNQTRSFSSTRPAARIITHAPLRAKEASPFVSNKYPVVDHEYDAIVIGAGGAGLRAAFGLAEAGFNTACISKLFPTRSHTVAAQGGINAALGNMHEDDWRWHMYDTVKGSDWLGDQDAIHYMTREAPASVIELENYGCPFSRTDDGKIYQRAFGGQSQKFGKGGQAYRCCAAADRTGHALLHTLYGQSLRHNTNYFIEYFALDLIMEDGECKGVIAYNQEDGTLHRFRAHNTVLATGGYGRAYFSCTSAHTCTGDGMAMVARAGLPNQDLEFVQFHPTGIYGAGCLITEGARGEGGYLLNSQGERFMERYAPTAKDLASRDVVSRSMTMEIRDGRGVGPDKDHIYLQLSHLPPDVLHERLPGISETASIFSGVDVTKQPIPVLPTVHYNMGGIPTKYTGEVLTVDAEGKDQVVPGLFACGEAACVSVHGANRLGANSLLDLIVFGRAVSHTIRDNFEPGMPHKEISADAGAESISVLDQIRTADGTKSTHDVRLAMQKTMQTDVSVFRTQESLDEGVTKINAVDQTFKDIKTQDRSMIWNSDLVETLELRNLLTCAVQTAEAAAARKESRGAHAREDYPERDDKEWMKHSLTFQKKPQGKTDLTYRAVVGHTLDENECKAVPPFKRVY

For `CCC1CCCC(C)=C1c1ccccc1NC(=O)c1cn(C)nc1C(F)(F)F` (stereo not shown) [Example 138, 1H-pyrazole-4-carboxamide, N-[2-(6-ethyl-2-methyl-1-cyclohexen-1-yl)phenyl]-1-methyl-3-(trifluoromethyl)-], in the experiment with Botrytis cinerea [1], the “Disease Control Rating at 20 ppm” value came out at 0, the “Disease Control Rating at 100 ppm” value was 0 and the “Disease Control Rating at 500 ppm” value came out at 0. Also, in the experiment with Rhizoctonia solani, the “Disease Control Rating at 0.5 mg/mL” value is recorded as 2. In the experiment with Botrytis cinerea [2], the pest or weed control at 50 ppm amounted to 0% and the pest or weed control at 200 ppm was 4%. At succinate dehydrogenase, the IC50 was found to be 0.13 µM.
Turning to `C[C@@H]1CCC[C@H](c2ccccc2NC(=O)c2cn(C)nc2C(F)(F)F)C1` (relative stereo) [Example 79, 1H-pyrazole-4-carboxamide, 1-methyl-N-[2-(3-methylcyclohexyl)phenyl]-3-(trifluoromethyl)-, cis-], in the experiment with Botrytis cinerea [1], the “Disease Control Rating at 20 ppm” value came out at 0, the “Disease Control Rating at 100 ppm” value is reported as 1 and the “Disease Control Rating at 500 ppm” value is 2. For the same compound, in the experiment with Rhizoctonia solani, the “Disease Control Rating at 0.02 mg/mL” value was 3, the “Disease Control Rating at 0.1 mg/mL” value is given as 3 and the “Disease Control Rating at 0.5 mg/mL” value is 3. In addition, in the experiment on Botrytis cinerea [2], the pest or weed control at 50 ppm was determined as 69% and the pest or weed control at 200 ppm stood at 97%. Moreover, the IC50 at succinate dehydrogenase amounted to 0.011 µM.
On to `Cn1nc(C(F)(F)F)c(C(=O)Nc2ccccc2[C@@H]2C[C@H]3CC[C@@H]2C3)c1F` (relative stereo) [Example 85, 1H-pyrazole-4-Carboxamide, N-(2-bicyclo[2.2.1]hept-2-ylphenyl)-5-fluoro-1-methyl-3-(trifluoromethyl)-, exo-], for which, in the experiment on Botrytis cinerea [1], the “Disease Control Rating at 20 ppm” value is on record as 0, the “Disease Control Rating at 100 ppm” value is on record as 1 and the “Disease Control Rating at 500 ppm” value stood at 2. For the same compound, in the experiment on Rhizoctonia solani, the “Disease Control Rating at 0.02 mg/mL” value was determined as 1, the “Disease Control Rating at 0.1 mg/mL” value is 3 and the “Disease Control Rating at 0.5 mg/mL” value is 3. For the same compound, in the experiment on Botrytis cinerea [2], the pest or weed control at 50 ppm turned out to be 28% and the pest or weed control at 200 ppm worked out at 99%. The IC50 on succinate dehydrogenase amounted to 0.01 µM.
For the compound `Cc1nn(C)c(F)c1C(=O)Nc1ccccc1C1CCCCCC1` [Example 113, 1H-pyrazole-4-carboxamide, N-(2-cycloheptylphenyl)-5-fluoro-1,3-dimethyl-], in the experiment with Botrytis cinerea [1], the “Disease Control Rating at 20 ppm” value worked out at 1, the “Disease Control Rating at 100 ppm” value was determined as 1 and the “Disease Control Rating at 500 ppm” value came to 3. For the same compound, in the experiment with Rhizoctonia solani, the “Disease Control Rating at 0.02 mg/mL” value came to 3, the “Disease Control Rating at 0.1 mg/mL” value turned out to be 3 and the “Disease Control Rating at 0.5 mg/mL” value came out at 3. In the experiment on Botrytis cinerea [2], the pest or weed control at 50 ppm stood at 28% and the pest or weed control at 200 ppm amounted to 60%. On succinate dehydrogenase, the IC50 was 0.013 µM.
Regarding `Cn1cc(C(=O)Nc2ccc(F)cc2C2CCCCC2)c(C(F)F)n1` [Example 11, 1H-pyrazole-4-carboxamide, N-(2-cyclohexyl-4-fluorophenyl)-3-(difluoromethyl)-1-methyl-], in the experiment on Botrytis cinerea [1], the “Disease Control Rating at 20 ppm” value was 2, the “Disease Control Rating at 100 ppm” value is 2 and the “Disease Control Rating at 500 ppm” value is reported as 3. Besides, in the experiment on Rhizoctonia solani, the “Disease Control Rating at 0.02 mg/mL” value was determined as 1, the “Disease Control Rating at 0.1 mg/mL” value came to 3 and the “Disease Control Rating at 0.5 mg/mL” value worked out at 3. Also, in the experiment with Botrytis cinerea [2], the pest or weed control at 50 ppm was 75% and the pest or weed control at 200 ppm came out at 92%. Further, on succinate dehydrogenase, the IC50 came out at 0.0054 µM.
Consider `Cn1cc(C(=O)Nc2ccccc2C=C2CCCCC2)c(C(F)(F)F)n1` [Example 40, 1H-pyrazole-4-carboxamide, N-[2-(cyclohexylidenemethyl)phenyl]-1-methyl-3-(trifluoromethyl)-], for which, in the experiment on Botrytis cinerea [1], the “Disease Control Rating at 20 ppm” value is 0, the “Disease Control Rating at 100 ppm” value is given as 0 and the “Disease Control Rating at 500 ppm” value was found to be 1. The “Disease Control Rating at 0.5 mg/mL” value with Rhizoctonia solani is 0. Besides, in the experiment with Botrytis cinerea [2], the pest or weed control at 50 ppm amounted to 2% and the pest or weed control at 200 ppm came to 3%. The IC50 on succinate dehydrogenase came out at 0.079 µM.
As to `Cn1cc(C(=O)Nc2ccccc2C2CCCCC2)c([N+](=O)[O-])n1` [Example 62, 1H-pyrazole-4-carboxamide, N-(2-cyclohexylphenyl]-1-methyl-3-nitro-], in the experiment on Botrytis cinerea [1], the “Disease Control Rating at 20 ppm” value was found to be 0, the “Disease Control Rating at 100 ppm” value is reported as 0 and the “Disease Control Rating at 500 ppm” value turned out to be 1. For the same compound, the “Disease Control Rating at 0.5 mg/mL” value in the experiment on Rhizoctonia solani worked out at 0. Moreover, in the experiment with Botrytis cinerea [2], the pest or weed control at 50 ppm was 0% and the pest or weed control at 200 ppm was 0%. In addition, the IC50 at succinate dehydrogenase came to 0.29 µM.
Consider `Cn1cc(C(=O)Nc2ccccc2OC2(C)CCCC2)c(C(F)(F)F)n1` [Example 36, 1H-pyrazole-4-carboxamide, 1-methyl-N-[2-(1-methylcyclopentyloxy)phenyl]-3-(trifluoromethyl)-], for which the “Disease Control Rating at 500 ppm” value in the experiment on Botrytis cinerea [1] was determined as 0. The “Disease Control Rating at 0.5 mg/mL” value in the experiment on Rhizoctonia solani was found to be 0. Moreover, in the experiment on Botrytis cinerea [2], the pest or weed control at 50 ppm stood at 14% and the pest or weed control at 200 ppm turned out to be 38%. The IC50 at succinate dehydrogenase was 0.021 µM.
With `Cn1cc(C(=O)Nc2ccccc2CC2CCCCCC2)c(C(F)(F)F)n1` [Example 146, 1H-pyrazole-4-carboxamide, 1-methyl-N-[2-(cycloheptylmethyl)-phenyl]-3-(trifluoromethyl)-], in the experiment on Botrytis cinerea [1], the “Disease Control Rating at 20 ppm” value is 0, the “Disease Control Rating at 100 ppm” value was found to be 0 and the “Disease Control Rating at 500 ppm” value was determined as 1. In addition, the “Disease Control Rating at 0.5 mg/mL” value in the experiment with Rhizoctonia solani is 1. In the experiment on Botrytis cinerea [2], the pest or weed control at 50 ppm was determined as 0% and the pest or weed control at 200 ppm was 0%. Moreover, the IC50 at succinate dehydrogenase was found to be 0.053 µM.
Turning to `Cn1cc(C(=O)Nc2ccccc2OCC2CCCC2)c(C(F)(F)F)n1` [Example 47, 1H-pyrazole-4-carboxamide, N-[2-(cyclopentylmethoxy)phenyl]-1-methyl-3-(trifluoromethyl)-], the “Disease Control Rating at 500 ppm” value in the experiment on Botrytis cinerea [1] was 0. In the experiment with Rhizoctonia solani, the “Disease Control Rating at 0.02 mg/mL” value worked out at 1, the “Disease Control Rating at 0.1 mg/mL” value came to 3 and the “Disease Control Rating at 0.5 mg/mL” value was determined as 3. Further, in the experiment with Botrytis cinerea [2], the pest or weed control at 50 ppm was found to be 3% and the pest or weed control at 200 ppm is 0%. Moreover, on succinate dehydrogenase, the IC50 was determined as 0.16 µM.
For the compound `CC1C=C(c2ccccc2NC(=O)c2cn(C)nc2C(F)(F)F)CC1` (stereo not shown) [Example 148, 1H-pyrazole-4-carboxamide, N-[2-(3-methyl-1-cyclopenten-1-yl)phenyl]-1-methyl-3-(trifluoromethyl)-], in the experiment with Botrytis cinerea [1], the “Disease Control Rating at 20 ppm” value came to 0, the “Disease Control Rating at 100 ppm” value came to 2 and the “Disease Control Rating at 500 ppm” value is 2. The “Disease Control Rating at 0.5 mg/mL” value with Rhizoctonia solani was found to be 3. Moreover, in the experiment on Botrytis cinerea [2], the pest or weed control at 50 ppm was determined as 37% and the pest or weed control at 200 ppm came to 99%. The IC50 at succinate dehydrogenase came out at 0.027 µM.
For `Cn1cc(C(=O)Nc2ccccc2C2CCCCC2)c(I)n1` [Example 56, 1H-pyrazole-4-carboxamide, N-[2-(cyclohexyl)phenyl]-3-iodo-1-methyl-], the “Disease Control Rating at 500 ppm” value in the experiment on Botrytis cinerea [1] is recorded as 0. Besides, in the experiment with Rhizoctonia solani, the “Disease Control Rating at 0.5 mg/mL” value is recorded as 0. For the same compound, in the experiment on Botrytis cinerea [2], the pest or weed control at 50 ppm was determined as 46% and the pest or weed control at 200 ppm stood at 70%. In addition, the IC50 at succinate dehydrogenase was 0.013 µM.
